Read-outs that look alike come from different tables or passages of the source.
How the values were obtained:
C. perfringes = conditions: Ammonia at 0.1% w/w
[1] = system: parasites and protozoan oocysts; conditions: 20,000 mg/L ammonium phosphate, NH3 30 mg/L at pH 7.4, 300 mg/L at pH 8.4, cited from earlier work
[2] = recommended storage conditions; cited from earlier work
virus = conditions: quat 0.5% (5 g/L), cited from earlier work
bacteria = conditions: quat 0.5% (5 g/L), cited from earlier work

N [Ammonia]
level of C. perfringes after treatment (C. perfringes; raw biosolids at 1×10^7): less than 2×10^2
log reduction of spore forming bacteria and parasites (C. perfringes; raw biosolids): five log reductions

N.N.O=P(O)(O)O [Ammonium Phosphate/Nonionized Ammonia, Ammonium Phosphate Dibasic]
Degree of Inactivation: log reduction of parasites and protozoan oocysts [1]: 6 log reduction of parasites and
Degree of Inactivation: log reduction of parasites and protozoan oocysts ([1]; listed as Ammonium Phosphate): 6 log reduction of
Storage stability [2]: Stable under recommended storage

C12-C14-alkyl (ethylbenzyl) dimethyl ammonium chloride [Quaternary Amines]
Degree of Inactivation: log reduction of virus (virus): 6 log reduction, of virus
Degree of Inactivation: log reduction of virus (virus; listed as Quats): 6 log reduction. of
Degree of Inactivation: log reduction of bacteria (bacteria): 9 log reduction of bacteria
Degree of Inactivation: log reduction of bacteria (bacteria; listed as Quats): 9 log reduction of

Source: US20220394979A1 (priority 2021, published 2022)
